PubChem BioAssay (NCI)
Several values for one entry are separate records, joined by “and”; a condition that tells them apart may be missing. Equal entries are not always repeated.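 Briefly, cells in 96-well plates were exposed to five compound concentrations for 48 h, and endpoints were estimated by linear interpolation. GI50 marks 50% less growth. TGI denotes the concentration required for complete inhibition of growth.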

What was measured:
Assay in all cases: inhibition of tumour cell growth, NCI panel, 48 h
HCT-116 colon = test system: HCT-116 colon
NCI-H460 lung = test system: NCI-H460 lung
RXF 393 renal = test system: RXF 393 renal
SF-295 CNS = test system: SF-295 CNS
SF-539 CNS = test system: SF-539 CNS
SK-MEL-5 melanoma = test system: SK-MEL-5 melanoma
SR leukemia = test system: SR leukemia
UACC-257 melanoma = test system: UACC-257 melanoma
HOP-62 NSCLC = test system: HOP-62 NSCLC
SK-OV-3 ovarian = test system: SK-OV-3 ovarian

SMILES	GI50 (HCT-116 colon)	TGI (HCT-116 colon)	GI50 (NCI-H460 lung)	TGI (NCI-H460 lung)	GI50 (RXF 393 renal)	TGI (RXF 393 renal)	GI50 (SF-295 CNS)	TGI (SF-295 CNS)	GI50 (SF-539 CNS)	TGI (SF-539 CNS)	GI50 (SK-MEL-5 melanoma)	TGI (SK-MEL-5 melanoma)	GI50 (SR leukemia)	TGI (SR leukemia)	GI50 (UACC-257 melanoma)	TGI (UACC-257 melanoma)	GI50 (HOP-62 NSCLC)	TGI (HOP-62 NSCLC)	GI50 (SK-OV-3 ovarian)	TGI (SK-OV-3 ovarian)
CC1CCC(C#N)(NOC2=NCCN2)CC1 (configuration not stated)	63.8 µM	> 100 µM	37.7 µM	> 100 µM	> 100 µM	> 100 µM	23.6 µM	93.4 µM	23.4 µM	45.4 µM	38.6 µM	> 100 µM	38.7 µM	> 100 µM	> 100 µM	> 100 µM	–	–	–	–
O=C(Nc1ccc([N+](=O)[O-])cc1)c1cc2ccccc2cc1O	0.319 µM	1.32 µM	0.365 µM	6.31 µM	0.34 µM	1.26 µM	1.15 µM	3.17 µM	0.388 µM	4.94 µM	0.221 µM	0.534 µM	0.274 µM	1.05 µM	0.313 µM	1.48 µM	0.939 µM	8.69 µM	0.384 µM	15.7 µM
c1cc(C2N3CCCN2CC3)ccn1 (configuration not stated)	–	> 100 µM	–	> 100 µM	–	> 100 µM	–	> 100 µM	–	–	–	> 100 µM	–	> 100 µM	–	> 100 µM	–	> 100 µM	–	> 100 µM
COc1cccc2cc(N(C)c3nc(C)nc4ccsc34)ccc12	< 0.01 µM	10.5 µM	< 0.01 µM	10.9 µM	< 0.01 µM	16.4 µM	< 0.01 µM	12.4 µM	< 0.01 µM	< 0.01 µM	< 0.01 µM	< 0.01 µM	< 0.01 µM	26.8 µM	10.8 µM	27 µM	–	18.9 µM	< 0.01 µM	35.8 µM
Cc1sc2c(c1C)C(c1ccc(Cl)cc1)=N[C@@H](CC(=O)Nc1ccc(O)cc1)c1nnc(C)n1-2	0.499 µM	17.8 µM	2.95 µM	27.4 µM	1.79 µM	15.5 µM	2 µM	22.4 µM	0.629 µM	19 µM	0.472 µM	14.9 µM	0.344 µM	28.6 µM	0.632 µM	26.9 µM	0.18 µM	17.2 µM	0.15 µM	15 µM
CCCCCCCCCCC(CN(CC)CC)C(O)c1ccccc1 (configuration not stated)	1.72 µM	3.37 µM	1.88 µM	3.5 µM	1.5 µM	3.05 µM	1.84 µM	3.48 µM	1.72 µM	3.3 µM	1.48 µM	2.88 µM	2.44 µM	6.23 µM	2.64 µM	5.78 µM	–	–	2.78 µM	9.52 µM
COc1ccc(NCc2c(O)ccc3ccccc23)cc1	–	> 100 µM	–	> 100 µM	–	35 µM	–	> 100 µM	–	25.9 µM	–	49.1 µM	–	39.5 µM	–	44.5 µM	–	> 100 µM	–	> 100 µM
COc1cc(CCC(=O)NS(=O)(=O)c2ccccc2)cc(OC)c1OC	–	> 100 µM	–	> 100 µM	–	> 100 µM	–	> 100 µM	–	> 100 µM	–	–	–	> 100 µM	–	> 100 µM	–	> 100 µM	–	> 100 µM
COc1ccc(-c2cc3nccn3c(Nc3ncccc3C(N)=O)n2)cc1OC	0.516 µM	> 47.4 µM	2.19 µM	> 100 µM	0.613 µM	18.4 µM	> 100 µM	> 100 µM	5.86 µM	> 100 µM	4.87 µM	> 100 µM	0.275 µM	21.4 µM	> 100 µM	> 100 µM	3.18 µM	> 100 µM	> 100 µM	> 100 µM
O=C(Cc1ccccc1)NN1C(=O)C(Cl)C1c1ccccc1 (configuration not stated)	–	> 100 µM	–	> 100 µM	–	> 100 µM	–	> 100 µM	–	–	–	> 100 µM	–	55.3 µM	–	> 100 µM	–	> 100 µM	–	> 100 µM
COc1ccc(Cn2cc3c(c2-c2ccccc2)CCc2cncnc2-3)cc1	3.65 µM	14.9 µM	3.48 µM	13.1 µM	3.56 µM	9.82 µM	4.02 µM	17.8 µM	6 µM	18.7 µM	3.72 µM	14.2 µM	1.46 µM	6.7 µM	4.03 µM	16.7 µM	12 µM	31.3 µM	9.04 µM	31.2 µM
c1cc(-c2cnn3nc(N4CCOCC4)ccc23)nc(NC2CC2)n1	7.55 µM	24.6 µM	6.61 µM	> 25 µM	4.58 µM	10.8 µM	8.72 µM	> 25 µM	6.11 µM	20.4 µM	5.76 µM	16.7 µM	6.48 µM	20 µM	7.54 µM	> 25 µM	9.27 µM	> 25 µM	14.6 µM	> 25 µM
CCCCCCCCCCCCOC(=S)NC	–	30.8 µM	–	34 µM	–	32.5 µM	–	43.9 µM	–	33.5 µM	–	–	–	34.6 µM	–	42.2 µM	–	37.3 µM	–	58 µM
CSc1ccc(C(=O)/C=C/c2ccc(F)cc2)cc1	20.7 µM	36.6 µM	70.2 µM	> 100 µM	> 100 µM	> 100 µM	33.4 µM	> 100 µM	49.6 µM	> 100 µM	75 µM	> 100 µM	25.7 µM	51.5 µM	> 100 µM	> 100 µM	> 100 µM	> 100 µM	> 100 µM	> 100 µM
C=C1C(=O)O[C@H]2[C@H]1CC/C(COC(=O)NCc1cccc(OC)c1)=C\CC[C@@]1(C)O[C@@H]21	1.27 µM	2.76 µM	3.3 µM	13.4 µM	1.38 µM	2.84 µM	9.76 µM	21.7 µM	1.55 µM	2.98 µM	1.64 µM	3.2 µM	1.3 µM	12 µM	1.96 µM	5.79 µM	13.2 µM	28.3 µM	14.9 µM	28.2 µM
Oc1oc(-c2ccccc2)nc1/C=C1/C=NN=N1	–	> 100 µM	–	> 100 µM	–	> 100 µM	–	> 100 µM	–	> 100 µM	–	–	–	> 100 µM	–	> 100 µM	–	> 100 µM	–	> 100 µM
C=C(CN(CCN1CCOCC1)CC(=C)c1ccc(C(=O)Nc2ccccc2N)cc1)c1ccc(C(=O)Nc2ccccc2N)cc1	7.68 µM	15.3 µM	8.72 µM	> 50 µM	11.9 µM	23.6 µM	8.46 µM	19.9 µM	5.31 µM	16.1 µM	8.38 µM	16.7 µM	11.7 µM	> 50 µM	3.68 µM	13.5 µM	9.94 µM	> 50 µM	8.26 µM	17.2 µM
COc1cc(C(=C2SCCS2)c2nccc3cc(OC)c(OC)cc23)c([N+](=O)[O-])cc1OC	–	> 100 µM	–	–	–	> 100 µM	–	> 100 µM	–	> 100 µM	–	> 100 µM	–	> 100 µM	–	> 100 µM	–	> 100 µM	–	> 100 µM
NCCCn1c2c(c3ccc([N+](=O)[O-])cc3c1=O)C(=O)c1cc(Cl)ccc1-2	< 0.01 µM	0.0182 µM	< 0.01 µM	0.128 µM	< 0.01 µM	0.118 µM	< 0.01 µM	1.37 µM	< 0.01 µM	0.0613 µM	< 0.0151 µM	0.25 µM	< 0.01 µM	0.0325 µM	0.0526 µM	1.31 µM	< 0.01 µM	0.123 µM	< 0.01 µM	0.197 µM
CO[C@@]12[C@H](COC(N)=O)C3=C(C(=O)C(C)=C(N)C3=O)N1C[C@@H]1N[C@@H]12	1.26 µM and 1.15 µM	6.06 µM and 4.21 µM and 8.46 µM	–	1.03 µM and 1.48 µM	1.23 µM	6.36 µM and 6.07 µM and 3.77 µM	–	–	–	–	1.6 µM	1.22 µM and 3.25 µM and 1.69 µM	0.0345 µM	–	2.16 µM	5.17 µM and 7.79 µM and 11.2 µM	0.643 µM	–	2.41 µM	9.83 µM and 18 µM and 7.06 µM
CC1(C)CC(O)CCCCCCOc2c(CN)cccc2NC(=O)c2nc(cnc2N)-c2ccc(cc2)S1(=O)=O (configuration not stated)	0.187 µM	1.03 µM	< 0.0192 µM	2.31 µM	< 0.01 µM	1.54 µM	1.49 µM	3.02 µM	0.0363 µM	1.73 µM	1.5 µM	2.89 µM	< 0.01 µM	0.469 µM	1.52 µM	3.4 µM	1.41 µM	3.75 µM	2.22 µM	15.8 µM
O=C1C(Nc2cccc(O)c2)=C(Sc2ccc(Cl)cc2)C(=O)N1Cc1ccccc1	5.45 µM	33.2 µM	5.61 µM	> 100 µM	3.9 µM	21.2 µM	7.5 µM	24.9 µM	–	–	8.44 µM	24.7 µM	3.41 µM	14.1 µM	–	–	15.8 µM	35.7 µM	12.6 µM	30.6 µM
CCC(C)c1cnc(CC(C)C)c(=O)[nH]1 (configuration not stated)	–	> 100 µM	–	> 100 µM	–	> 100 µM	–	> 100 µM	–	–	–	> 100 µM	–	> 100 µM	–	> 100 µM	–	> 100 µM	–	> 100 µM
CCC[CH2][Sn]1([CH2]CCC)[O]CC([CH2][Sn]([c]2ccccc2)([c]2ccccc2)[c]2ccccc2)[O]1 (configuration not stated)	–	–	–	–	3.21 µM	15.4 µM	16.2 µM	30.4 µM	15 µM	28.3 µM	–	–	3.78 µM	> 100 µM	12.6 µM	26.6 µM	–	–	19.1 µM	33.2 µM
C=C(C)C1CCC2(CO)C(O)CC3(C)C(CCC4C5(C)CCC(O)C(C)(C)C5CCC43C)C12 (configuration not stated)	–	73.7 µM	–	64.3 µM	–	9.65 µM	–	10.3 µM	–	30 µM	–	21.3 µM	–	> 100 µM	–	24.9 µM	–	27 µM	–	–
Cc1ccc(C(=O)Nc2ccccc2C(=O)N/N=C(\c2ccccc2)c2ccccn2)cc1	0.348 µM	> 100 µM	0.211 µM	> 100 µM	1.53 µM	> 100 µM	0.377 µM	> 100 µM	0.309 µM	6.95 µM	0.271 µM	1.15 µM	0.208 µM	> 100 µM	0.999 µM	> 100 µM	0.27 µM	> 100 µM	0.478 µM	> 100 µM
CN(C)CCN1C(=O)c2cccc3c(-c4ccc5ncn(C6CCCCC6)c5c4)ccc(c23)C1=O	0.422 µM	10.9 µM	1.01 µM	7.41 µM	1.35 µM	2.96 µM	1.54 µM	5.93 µM	2.19 µM	9.03 µM	1.44 µM	2.85 µM	0.496 µM	5.47 µM	3.19 µM	8.41 µM	1.69 µM	6.75 µM	2.59 µM	8.64 µM
C/C=C/COc1cc(NC(=S)c2ccoc2C)ccc1OC	–	> 100 µM	–	–	–	> 100 µM	–	> 100 µM	–	> 100 µM	–	> 100 µM	–	> 100 µM	–	> 100 µM	–	> 100 µM	–	> 100 µM
C[C@@]1(CBr)C[C@@](C)(/C=C/Cl)[C@@H](Cl)C[C@H]1Cl	–	21.2 µM	–	–	–	27.9 µM	–	26.8 µM	–	27.9 µM	–	26.1 µM	–	16.9 µM	–	24.2 µM	–	27.5 µM	–	29.9 µM
O=C1C(Cl)=C(Nc2ccc3c(c2NC2=C(Cl)C(=O)c4ccccc4C2=O)C(=O)c2ccccc2C3=O)C(=O)c2ccccc21	–	–	1.86 µM	5.85 µM	2.97 µM	9.79 µM	1.38 µM	3.2 µM	2.83 µM	8.07 µM	0.386 µM	1.47 µM	1.42 µM	> 100 µM	1.88 µM	3.95 µM	2.25 µM	5.68 µM	6.52 µM	20.6 µM
